According to the CATMoS acute toxicity set (Mansouri et al. 2021):

Assay: GHS categories as the set defines them, by LD50: 1 up to 5, 2 up to 50, 3 up to 300, 4 up to 2000, 5 above 2000 mg/kg
Settings: rat; in vivo; po

Compound	GHS category
CCCCCC(=O)OCCC(C)C	5
CC(=O)OCC1=CC[C@@]23C[C@@H]1C(C)(C)[C@@H]2CC[C@H]3C	5
CC(C)=CCC/C(C)=C/COC(=O)C(C)C	5
COC(=O)C1=C(C)NC(COC(N)=O)=C(C(=O)OC(C)C)C1c1cccc(Cl)c1Cl (configuration not stated)	5
CNc1ccc(C(=O)c2ccc(Cl)cc2)cc1O	5
CCCc1c(Cc2ccc(-c3ccccc3-c3nn[nH]n3)cc2)c(N=[N+]=[N-])nc2ncnn12	4
CCCCOC(=O)c1ccc(-n2nc(OCCN(CC)CC)c3ccccc32)cc1	4
O=C(Nc1ccc(NC(=O)c2cc3ccccc3c(N=Nc3cc(Cl)ccc3Cl)c2O)c(Cl)c1)c1cc2ccccc2c(N=Nc2cc(Cl)ccc2Cl)c1O	5
N=c1ccn2c(n1)O[C@H]1[C@H](O)[C@@H](CO)O[C@H]12	5
O=C(CCCN1CCC2(CC1)C(=O)NCN2c1ccccc1)c1ccc(F)cc1	4
CCC1(CO)COCOC1	5
CNC(=O)C(=NNc1cccc(Cl)c1Cl)C(C)=O	5
CCCCCCCC(=O)N(CCO)CCO	5
CCOC[C@H]1CO[C@@](Cn2ccnc2)(c2cc3cc(Cl)cc(Cl)c3o2)O1	4
O=C1c2ccccc2C(=O)N1CCO	5
CC1(C)COC(Cn2cncn2)(c2cc3ccccc3o2)OC1	4
CNC(=O)Nc1ccc(Cl)c(Cl)c1	4
CCC(C)CCC(C)(O)CC (configuration not stated)	5
C[C@]12CC[C@@H]3c4ccc(O)cc4CC[C@H]3[C@@H]1C[C@@H](O)[C@@H]2O	5
CSCCC(NC(=O)C(N)Cc1c[nH]c2ccccc12)C(=O)NC(CC(=O)O)C(=O)NC(Cc1ccccc1)C(N)=O (configuration not stated)	5
CCCOC(=O)c1ccc(O)cc1	5
O=C(O)CN1C(=O)c2cccc3cccc(c23)C1=O	5
C[C@@H](Oc1cc(Br)cnc1N)c1c(Cl)ccc(F)c1Cl	5
O=C1C=C2C=C[C@@H]3C[C@@]2(O1)[C@H]1CCCCN31	4
COC(=O)CCCCCCCCCC[Si](C)(C)Cl	5
COC(=O)NC(=S)Nc1ccc(OCc2ccccc2)cc1[N+](=O)[O-]	5

Compound	GHS category
C=CC(C)(O)CCC=C(C)CCC=C(C)C (configuration not stated)	5
Cn1nnnc1SCCCS(=O)c1ccccn1 (configuration not stated)	4
CC1CCC2C(C)(C)C3CC12CC1OC13C (configuration not stated)	5
O=C(O)c1ccccc1C(=O)c1ccc(-c2ccccc2)cc1	5
CCCC(CCC)C(=O)Oc1ccccc1OC	5
COc1ccc(Cl)cc1NC(=O)CC(C)=O	5
COC1=C(C(=O)O)N2C(=O)[C@@H](NC(=O)[C@H](N)C3=CCC=CC3)[C@H]2SC1	5
CCCCCCCCCCCCCCCCOP(=O)(O)O	5
Cc1cc(O)cc(C)c1S(C)(=O)=O	4
N#Cc1ccc(C#N)cc1	5
COC(=O)c1ccc(C(=O)OC)c([N+](=O)[O-])c1	5
CC(C)(C)c1ccc(O)c(C(C)(C)C)c1	5
COc1ccc(C(=O)Nc2ccccc2)cc1N=Nc1c(O)c(C(=O)Nc2cc(Cl)ccc2OC)cc2ccccc12	5
CC1=C(/C=C/C(C)=C/C=C/C(C)=C/C=C/C=C(C)/C=C/C=C(C)/C=C/C2=C(C)CCCC2(C)C)C(C)(C)CCC1	5
CN(C)C(=O)c1cc(C(=O)N(C)C)c2c(n1)C(=O)C(=O)c1cc(C(=O)N(C)C)[nH]c1-2	5
CCOC(=O)NCC1CCN(c2nc(N)c3cc(OC)c(OC)cc3n2)CC1	4
Cc1ccn2nc(S(=O)(=O)Nc3c(F)cccc3F)nc2n1	5
CN1C(C(=O)Nc2ccccc2)=C(O)c2ccccc2S1(=O)=O	5
CCSC(=O)/C=C(C)/C=C/CC(C)CCCC(C)(C)OC (configuration not stated)	5
CC[C@@]12C=C(C(=O)OC3OC(=O)c4ccccc43)n3c4c(c5ccccc53)CCN(CCC1)[C@H]42 (some centres not stated)	5
Clc1ccc2oc(C3(Cn4ccnc4)OCCO3)cc2c1	4
CC1CC(OC(=O)C(C)(C)Oc2ccc(Cl)cc2)CC(C)(C)C1 (configuration not stated)	5
CCCCCCCCCCCCO[PH](=O)OCCCCCCCCCCCC	5
COc1ccc(OC(=O)c2ccccc2OC(N)=O)cc1	5
CCC[C@H](N[C@@H](C)C(=O)N1[C@H](C(=O)O)C[C@@H]2CCCC[C@@H]21)C(=O)OCC	5
CCC(=O)O[C@@H]1C=C2CCC3C(CCC4(C)C3CC[C@@H]4OC(=O)CC)C2CC1 (some centres not stated)	5

Compound	GHS category
Cc1ccccc1OP(Oc1ccccc1C)Oc1ccccc1C	4
CCCCc1ccc2[nH]c(NC(=O)OC)nc2c1	2
CCNC(=O)CCSCc1nnnn1-c1ccccc1	4
CC(C)(O)C(=O)c1ccc(Cc2ccc(C(=O)C(C)(C)O)cc2)cc1	5
C=C(OCC)C1C(C)(C)CC(=O)CC1(C)C	5
Cn1c(=O)c2[nH]c(=O)[nH]c2n(C)c1=O	5
C#CCN1C(=O)COc2cc(F)c(N3C(=O)C4=C(CCCC4)C3=O)cc21	5
N#C[Se]Cc1ccc(C[Se]C#N)cc1	4
CCC1(CC)COP(=S)(N(SN(C)C(=O)ON=C(C)SC)C2CCCCC2)OC1	5
CC(=O)Nc1c(I)c(NC(C)=O)c(I)c(C(=O)O)c1I	5
Cc1ccc2c([nH]c(=O)c3c(=O)cc(C(=O)OCCC(C)C)oc32)c1C	5
CSC(C)=NOC(=O)N(C)SN(C)C(=O)Oc1ccc(Sc2ccc(OC(=O)N(C)SN(C)C(=O)ON=C(C)SC)cc2)cc1	4
CC(C)(C)c1ccc(C(=O)CCCN2CCC(OC(c3ccccc3)c3ccccc3)CC2)cc1	5
CCN(CC)CCc1nc(-c2ccccc2)no1	5
O=S(=O)(O)c1ccc(/N=N/c2cc(CO)c(O)c(/N=N/c3ccc(S(=O)(=O)O)c4ccccc34)c2O)c2ccccc12	5
C=CCOc1cc(Cl)ccc1C(=O)NCCN(CC)CC	5
Cn1cc(-c2ccccc2)c(=O)c(-c2cccc(C(F)(F)F)c2)c1	5
CC(=O)Nc1ccc(OC(=O)c2cccs2)cc1	5
CC[C@H](c1ccc(O)cc1)[C@@H](CC)c1ccc(O)cc1	5
CC1=C(NC(=O)O)/C(=N/C(=O)CN)C=CC1(NC(=O)O)c1cccc(C2=CC=C/C(=N\C(=O)CN)C2C)c1 (configuration not stated)	5
CCCCC1=NC2(CCCC2)C(=O)N1Cc1ccc(-c2ccccc2C#N)cc1	5
CNc1cccc(NC(=O)C(=O)O)c1C#N	5
CS(=O)(=O)c1ccc(F)c(C(=O)O)c1	5
CC(C)(C)OOC(C)(C)C	5
O=C1C(O)N=C(c2ccccc2)c2cc(Cl)ccc2N1CC1CC1 (configuration not stated)	5
CCCNC(=O)c1cnc2cc(C)ccn2c1=O	3

Compound	GHS category
CC1CNCCN1SC=S (configuration not stated)	5
COc1cc(O)c2c(=O)oc(CO)cc2c1	4
CC(C)Cc1ccc(OP(=O)(Oc2ccc(CC(C)C)cc2)Oc2ccc(CC(C)C)cc2)cc1	5
CC[C@H](C)[C@H](NC(=O)[C@H](CCC(=O)O)NC(=O)[C@H](CO)NC(=O)[C@@H](NC(=O)[C@@H](N)CO)C(C)C)C(=O)N[C@@H](CCC(N)=O)C(=O)N[C@@H](CC(C)C)C(=O)N[C@@H](CCSC)C(=O)N[C@@H](Cc1cnc[nH]1)C(=O)N[C@@H](CC(N)=O)C(=O)N[C@@H](CC(C)C)C(=O)NCC(=O)N[C@@H](CCCCN)C(=O)N[C@@H](Cc1cnc[nH]1)C(=O)N[C@@H](CC(C)C)C(=O)N[C@@H](CC(N)=O)C(=O)N[C@@H](CO)C(=O)N[C@@H](CCSC)C(=O)N[C@@H](CCC(=O)O)C(=O)N[C@@H](CCCNC(=N)N)C(=O)N[C@H](C(=O)N[C@@H](CCC(=O)O)C(=O)N[C@@H](Cc1c[nH]c2ccccc12)C(=O)N[C@@H](CC(C)C)C(=O)N[C@@H](CCCNC(=N)N)C(=O)N[C@@H](CCCCN)C(=O)N[C@@H](CCCCN)C(=O)N[C@@H](CC(C)C)C(=O)N[C@@H](CCC(N)=O)C(=O)N[C@@H](CC(=O)O)C(=O)N[C@H](C(=O)N[C@@H](Cc1cnc[nH]1)C(=O)N[C@@H](CC(N)=O)C(=O)N[C@@H](Cc1ccccc1)C(=O)O)C(C)C)C(C)C	2
CC1CC(c2ccccc2)C(c2ccccc2)C(=O)O1 (configuration not stated)	4
CC(C)=CCN(CC=C(C)C)CCC(CCN(CC=C(C)C)CC=C(C)C)(C(N)=O)c1cccc2ccccc12	4
CC1Oc2cc(C(=O)C=Cc3ccccc3)ccc2N(C)C1=O (configuration not stated)	5
O=C(O)[C@H]1O[C@@H](O)[C@@H](O)[C@@H](O)[C@@H]1O	5
CC1CC(OC(=O)C(C)Oc2cccc(C(F)(F)F)c2)CC(C)(C)C1 (configuration not stated)	5
O=C1CCCCCN1C(=O)c1cccc(C(=O)N2CCCCCC2=O)c1	5
CN[C@@H]1[C@H](O)[C@H](NC)[C@H]2O[C@@]3(O)C(=O)C[C@@H](C)O[C@H]3O[C@@H]2[C@H]1O	5
C[C@H]1COc2c(N3C[C@@H](N)C4(CCC4)C3)c(F)cc3c(=O)c(C(=O)O)cn1c23	5
CCNc1nc(Nc2ccccc2)nc(Nc2ccc(C=Cc3ccc(Nc4nc(NCC)nc(Nc5ccccc5)n4)cc3S(=O)(=O)O)c(S(=O)(=O)O)c2)n1	5
CC1CCC(C(C)(C)O)CC1 (configuration not stated)	5
CC(C)=CCN(CC=C(C)C)CCC(C#N)(c1ccc2ccccc2c1)C(C)C (configuration not stated)	4
C=C(C)C(=O)OCCC(F)(F)C(F)(F)C(F)(F)C(F)(F)C(F)(F)C(F)(F)F	5
O=c1nc(-c2cccnc2)[nH]c2ncccc12	4
COc1cc2c(s1)C(O)=C(C(=O)Nc1ccccn1)N(C)S2(=O)=O	3
CCCC(=O)O[C@]1(C(=O)CO)CC[C@H]2[C@@H]3CCC4=CC(=O)CC[C@]4(C)[C@H]3[C@@H](O)C[C@@]21C	5
CCOC(=O)C(SP(=S)(OC)OC)C(SP(=S)(OC)OC)C(=O)OCC (configuration not stated)	4
CCCCCCCCCCCCCCCC(=O)OC	5
CCn1ccc(=O)n2nc(-c3cccs3)cc12	4
O=CN(O)CCCP(=O)(O)O	5
O=C(O)CCCCCCCCCCCC(=O)O	5
